Here are results for four compounds from patent publication US5583218A, “Carbapenem derivatives” (Daiichi Pharmaceutical Co., Ltd., priority 1988, dated 1996).

In brackets after ≈: the same amount, converted by molar mass. Where two headings read alike, the source gives them in different places.

In assay [1] the test system is E. coli NIHJ. In words: Minimum inhibitory concentration against E. coli NIHJ. In kind it is cell-based. To be noted: Escherichia coli.
Assay [2] relates to Ent. cloacae 03400. Kind of assay: Minimum inhibitory concentration against Ent. cloacae 03400. To be noted: Enterobacter cloacae. In kind it is cell-based.
The subject of assay [3] is Ser. marcescens 10104. Kind of assay: Minimum inhibitory concentration against Ser. marcescens 10104. In kind it is cell-based, Serratia marcescens.
Assay [4] has as its system Ps. aeruginosa 32233. Kind of assay: Minimum inhibitory concentration against Ps. aeruginosa 32233. To be noted: Pseudomonas aeruginosa. In kind it is cell-based.
Assay [5] deals with S. aureus 209P. Kind of assay: Minimum inhibitory concentration against S. aureus 209P. In kind it is cell-based. To be noted: Staphylococcus aureus.
The subject of assay [6] is C. difficile GAI-0747. In words: Minimum inhibitory concentration against C. difficile GAI-0747. The format is cell-based, Clostridium difficile. To be noted: Clostridioides difficile, GAI0747.
The subject of assay [7] is gram-positive and gram-negative bacteria, obligate anaerobes, strains resistant to penicillins and cepharosporins. To be noted: bacteria resistant to penicillin and cepharosporin antibiotics; background art; cited from earlier work.
The mark [8] stands for this setting: Serratia marcescens, Ser. marcescens 10104, read-out: Minimum Inhibitory Concentration (MIC).

As for `C[C@@H](O)[C@H]1C(=O)N2C(C(=O)O)=C(SC3Cc4cncn4C3)[C@H](C)[C@H]12` (single isomer, unassigned) [Compound 1], the MIC was below 0.1 µg/mL in assay [1]; below 0.1 µg/mL in assay [2]; below 0.1 µg/mL in assay [3] (setting [8]); 6.25 µg/mL (≈ 17.9 µM) in assay [4]; below 0.1 µg/mL in assay [5]; 3.13 µg/mL (≈ 8.96 µM) in assay [6].

Regarding `C[C@@H](O)[C@H]1C(=O)N2C(C(=O)O)=C(SCCN=CN)C[C@H]12` [MK-0787, reference compound], the MIC in assay [1] was 0.2 µg/mL (≈ 0.668 µM); in assay [2] it was 0.78 µg/mL (≈ 2.61 µM); in assay [3] (Serratia marcescens, 10104, read-out: Minimum Inhibitory Concentration (MIC)), 1.56 µg/mL (≈ 5.21 µM); in assay [4] it was 1.56 µg/mL (≈ 5.21 µM); in assay [5] it was below 0.1 µg/mL; in assay [6] it was 50 µg/mL (≈ 167 µM).

As to `C[C@@H](O)[C@H]1C(=O)N2C(C(=O)O)=C(SC3Cc4nccn4C3)[C@H](C)[C@H]12` (single isomer, unassigned) [Compound 2], the MIC in assay [1] is below 0.1 µg/mL; in assay [2], below 0.1 µg/mL; in assay [3] (setting [8]), below 0.1 µg/mL; in assay [4], 6.25 µg/mL (≈ 17.9 µM); in assay [5], below 0.1 µg/mL; in assay [6], 1.56 µg/mL (≈ 4.46 µM).

On to `C[C@@H](O)[C@H]1C(=O)N2C(C(=O)O)=C(SCCN)C[C@H]12` [Thienamycin], for which the antibacterial activity result in assay [7] is “effective even against bacteria resistant to penicillin and cepharosporin antibiotics”.
